Values after ≈ are worked out from the molar mass of the structure shown.
How the values were obtained:
E. coli JM109/pMW218 = assay: MIC, agar plate dilution method, E. coli JM109/pMW218; assay type: cell-based, Escherichia coli; conditions: for MIC: Escherichia coli, JM109/PMW218, E. coli JM109/pMW218, Sensitive bacterium, read-out: minimal inhibitory concentration (MIC); for minimal inhibitory concentration (MIC): E. coli JM109/pMW218, Sensitive bacterium
Method: (§1) As for the representative compounds of a new aminoglycoside antibiotic of the present invention described in Examples, the minimal inhibitory concentration (MIC, μg/mL) was measured for various assay strains of bacteria using an agar plate dilution method in accordance with the method described in the Japan Society of Chemotherapy.

[1] = tested on: A. baumannii ATCC BAA-1710; assay: MIC, agar plate dilution method, A. baumannii ATCC BAA-1710; assay type: cell-based, Acinetobacter baumannii; conditions: for MIC: Acinetobacter baumannii, ATCCBAA1710, A. baumannii ATCC BAA-1710, MDRA, read-out: minimal inhibitory concentration (MIC); for minimal inhibitory concentration (MIC): A. baumannii ATCC BAA-1710, MDRA
Method: as §1

P. aeruginosa PAO1/GN315 = assay: MIC, agar plate dilution method, P. aeruginosa PAO1/GN315; assay type: cell-based, Pseudomonas aeruginosa; conditions: for MIC: Pseudomonas aeruginosa, read-out: minimal inhibitory concentration (MIC), P. aeruginosa PAO1/GN315, AMK-resistant; for minimal inhibitory concentration (MIC): P. aeruginosa PAO1/GN315, AMK-resistant
Method: as §1

S. aureus MF490 = assay: MIC, agar plate dilution method, S. aureus MF490; assay type: cell-based, Staphylococcus aureus; conditions: for MIC: Staphylococcus aureus, MRSA, read-out: minimal inhibitory concentration (MIC); for minimal inhibitory concentration (MIC): S. aureus MF490, MRSA
Method: as §1

S. marcescens GN6944 = assay: MIC, agar plate dilution method, S. marcescens GN6944; assay type: cell-based, Serratia marcescens; conditions: S. marcescens GN6944, GM-resistant; for MIC: Serratia marcescens, read-out: minimal inhibitory concentration (MIC)
Method: as §1

S. marcescens TH-0447 = assay: MIC, agar plate dilution method, S. marcescens TH-0447; assay type: cell-based, Serratia marcescens; conditions: for MIC: Serratia marcescens, TH0447, S. marcescens TH-0447, AMK-resistant, read-out: minimal inhibitory concentration (MIC); for minimal inhibitory concentration (MIC): S. marcescens TH-0447, AMK-resistant
Method: as §1

P. aeruginosa MSC17707 = assay: MIC, agar plate dilution method, P. aeruginosa MSC17707; assay type: cell-based, Pseudomonas aeruginosa; conditions: for MIC: Pseudomonas aeruginosa, MSC17707, P. aeruginosa MSC17707, AMK-resistant, read-out: minimal inhibitory concentration (MIC); for minimal inhibitory concentration (MIC): P. aeruginosa MSC17707, AMK-resistant
Method: as §1

S. aureus RN4220 = assay: MIC, agar plate dilution method, S. aureus RN4220; assay type: cell-based, Staphylococcus aureus; conditions: for MIC: Staphylococcus aureus, RN4220, S. aureus RN4220, Sensitive bacterium, read-out: minimal inhibitory concentration (MIC); for minimal inhibitory concentration (MIC): S. aureus RN4220, Sensitive bacterium
Method: as §1

P. aeruginosa MSC01035 = assay: MIC, agar plate dilution method, P. aeruginosa MSC01035; assay type: cell-based, Pseudomonas aeruginosa; conditions: P. aeruginosa MSC01035, ABK-resistant; for MIC: Pseudomonas aeruginosa, read-out: minimal inhibitory concentration (MIC)
Method: as §1

S. aureus RN4220/pMS520 = assay: MIC, agar plate dilution method, S. aureus RN4220/pMS520; assay type: cell-based, Staphylococcus aureus; conditions: for MIC: Staphylococcus aureus, MRSA, read-out: minimal inhibitory concentration (MIC), S. aureus RN4220/pMS520, MRSA; for minimal inhibitory concentration (MIC): S. aureus RN4220/pMS520, MRSA
Method: as §1

[2] = tested on: K. pneumoniae ATCC BAA-1705; assay: MIC, agar plate dilution method, K. pneumoniae ATCC BAA-1705; assay type: cell-based, Klebsiella pneumoniae; conditions: for MIC: Klebsiella pneumoniae, ATCCBAA1705, K. pneumoniae ATCC BAA-1705, KPC-producing strain, read-out: minimal inhibitory concentration (MIC); for minimal inhibitory concentration (MIC): K. pneumoniae ATCC BAA-1705, KPC-producing strain
Method: as §1

E. faecium ATCC19434 = assay: MIC, agar plate dilution method, E. faecium ATCC19434; assay type: cell-based, Enterococcus faecium; conditions: for MIC: Enterococcus faecium, ATCC19434, E. faecium ATCC19434, read-out: minimal inhibitory concentration (MIC); for minimal inhibitory concentration (MIC): E. faecium ATCC19434
Method: as §1

P. aeruginosa PAO1 = assay: MIC, agar plate dilution method, P. aeruginosa PAO1; assay type: cell-based, Pseudomonas aeruginosa; conditions: for MIC: Pseudomonas aeruginosa, PAO1, P. aeruginosa PAO1, Sensitive bacterium, read-out: minimal inhibitory concentration (MIC); for minimal inhibitory concentration (MIC): P. aeruginosa PAO1, Sensitive bacterium
Method: as §1

[3] = tested on: K. pneumoniae ATCC BAA-2146; assay: MIC, agar plate dilution method, K. pneumoniae ATCC BAA-2146; assay type: cell-based, Klebsiella pneumoniae; conditions: for MIC: Klebsiella pneumoniae, ATCCBAA2146, K. pneumoniae ATCC BAA-2146, NDM-producing strain, read-out: minimal inhibitory concentration (MIC); for minimal inhibitory concentration (MIC): K. pneumoniae ATCC BAA-2146, NDM-producing strain
Method: as §1

SMILES	MIC (E. coli JM109/pMW218) [µg/mL]	MIC [1] [µg/mL]	MIC (P. aeruginosa PAO1/GN315) [µg/mL]	MIC (S. aureus MF490) [µg/mL]	MIC (S. marcescens GN6944) [µg/mL]	MIC (S. marcescens TH-0447) [µg/mL]	MIC (P. aeruginosa MSC17707) [µg/mL]	MIC (S. aureus RN4220) [µg/mL]	MIC (P. aeruginosa MSC01035) [µg/mL]	MIC (S. aureus RN4220/pMS520) [µg/mL]	MIC [2] [µg/mL]	MIC (E. faecium ATCC19434) [µg/mL]	MIC (P. aeruginosa PAO1) [µg/mL]	MIC [3] [µg/mL]	minimal inhibitory concentration (MIC) (E. coli JM109/pMW218) [µg/mL]	minimal inhibitory concentration (MIC) [1] [µg/mL]	minimal inhibitory concentration (MIC) (P. aeruginosa PAO1/GN315) [µg/mL]	minimal inhibitory concentration (MIC) (S. aureus MF490) [µg/mL]	minimal inhibitory concentration (MIC) (S. marcescens GN6944) [µg/mL]	minimal inhibitory concentration (MIC) (S. marcescens TH-0447) [µg/mL]	further results
CNC1C(O[C@H]2OC(CO)[C@@H](NC(CN)CN)[C@H](O)C2O)O[C@H]2CC(N)[C@@H](O[C@H]3CC(O)[C@H](N)CC3N)OC2C1O (stereo partly drawn) [Compound S1-d, 4″-N-(1,3-diaminopropan-2-yl)-5-deoxyapramycin]	1 (≈ 1.68 µM)	8 (≈ 13.4 µM)	4 (≈ 6.71 µM)	4 (≈ 6.71 µM)	4 (≈ 6.71 µM)	8 (≈ 13.4 µM)	4 (≈ 6.71 µM)	1 (≈ 1.68 µM)	4 (≈ 6.71 µM)	1 (≈ 1.68 µM)	1 (≈ 1.68 µM)	16 (≈ 26.9 µM)	2 (≈ 3.36 µM)	1 (≈ 1.68 µM)	–	–	–	–	–	–	–
CNC1C(O[C@H]2OC(CO)[C@@H](NC(=O)[C@@H](O)CN)[C@H](O)C2O)O[C@H]2CC(N)[C@@H](O[C@@H]3C(N)C[C@@H](N)C(O)[C@H]3O)OC2C1O (stereo partly drawn) [Compound V1-h, 4″-N-(L-isoseryl)apramycin]	2 (≈ 3.19 µM)	8 (≈ 12.8 µM)	8 (≈ 12.8 µM)	8 (≈ 12.8 µM)	8 (≈ 12.8 µM)	16 (≈ 25.5 µM)	4 (≈ 6.38 µM)	4 (≈ 6.38 µM)	4 (≈ 6.38 µM)	4 (≈ 6.38 µM)	2 (≈ 3.19 µM)	32 (≈ 51.1 µM)	16 (≈ 25.5 µM)	2 (≈ 3.19 µM)	–	–	–	–	–	–	–
CNCC(=O)N[C@@H]1C(CO)O[C@H](OC2O[C@H]3CC(N)[C@@H](O[C@@H]4C(N)C[C@@H](N)C(O)[C@H]4O)OC3C(O)C2NC)C(O)[C@H]1O (stereo partly drawn) [Compound V1-b, 4″-N-sarcosylapramycin]	1 (≈ 1.64 µM)	8 (≈ 13.1 µM)	4 (≈ 6.55 µM)	8 (≈ 13.1 µM)	8 (≈ 13.1 µM)	16 (≈ 26.2 µM)	4 (≈ 6.55 µM)	2 (≈ 3.28 µM)	4 (≈ 6.55 µM)	2 (≈ 3.28 µM)	2 (≈ 3.28 µM)	16 (≈ 26.2 µM)	4 (≈ 6.55 µM)	1 (≈ 1.64 µM)	–	–	–	–	–	–	–
CN[C@@H]1[C@@H](O[C@@H]2C[C@H](O)[C@H](N)[C@@H](CO)O2)O[C@H]2C[C@@H](N)[C@@H](O[C@H]3[C@@H](F)[C@@H](O)[C@H](N)C[C@@H]3N)O[C@@H]2[C@@H]1O [Compound O5, 5,2″-dideoxy-5,3″-diepi-5-fluoroapramycin]	–	–	–	–	–	–	–	–	–	–	–	–	–	–	0.5 (≈ 0.951 µM)	4 (≈ 7.61 µM)	2 (≈ 3.81 µM)	4 (≈ 7.61 µM)	2 (≈ 3.81 µM)	4 (≈ 7.61 µM)	minimal inhibitory concentration (MIC) (P. aeruginosa MSC17707): 4 µg/mL (≈ 7.61 µM); minimal inhibitory concentration (MIC) (S. aureus RN4220): 1 µg/mL (≈ 1.9 µM); minimal inhibitory concentration (MIC) (P. aeruginosa MSC01035): 4 µg/mL (≈ 7.61 µM); minimal inhibitory concentration (MIC) (S. aureus RN4220/pMS520): 1 µg/mL (≈ 1.9 µM); minimal inhibitory concentration (MIC) [2]: 1 µg/mL (≈ 1.9 µM); minimal inhibitory concentration (MIC) (E. faecium ATCC19434): 8 µg/mL (≈ 15.2 µM); minimal inhibitory concentration (MIC) (P. aeruginosa PAO1): 2 µg/mL (≈ 3.81 µM); minimal inhibitory concentration (MIC) [3]: 0.5 µg/mL (≈ 0.951 µM)
CNC1C(O[C@H]2OC(CO)[C@@H](NC(=N)N)[C@H](O)C2O)O[C@H]2CC(N)[C@@H](O[C@H]3CC[C@H](N)CC3N)OC2C1O (stereo partly drawn) [Compound T2-e, 4″-deamino-5,6-dideoxy-4″-guanidinoapramycin]	0.5 (≈ 0.91 µM)	4 (≈ 7.28 µM)	4 (≈ 7.28 µM)	2 (≈ 3.64 µM)	2 (≈ 3.64 µM)	4 (≈ 7.28 µM)	4 (≈ 7.28 µM)	1 (≈ 1.82 µM)	8 (≈ 14.6 µM)	0.5 (≈ 0.91 µM)	1 (≈ 1.82 µM)	4 (≈ 7.28 µM)	4 (≈ 7.28 µM)	0.5 (≈ 0.91 µM)	–	–	–	–	–	–	–
CNC1C(OC2OC(CO)C(N)C(O)C2O)OC2CC(N)C(OC3C(N)CC(N)C(O)C3F)OC2C1O (stereo not drawn) [Compound B7, 5-deoxy-5-epi-5-fluoroapramycin]	–	–	–	–	–	–	–	–	–	–	–	–	–	–	1 (≈ 1.85 µM)	8 (≈ 14.8 µM)	8 (≈ 14.8 µM)	16 (≈ 29.5 µM)	8 (≈ 14.8 µM)	16 (≈ 29.5 µM)	minimal inhibitory concentration (MIC) (P. aeruginosa MSC17707): 8 µg/mL (≈ 14.8 µM); minimal inhibitory concentration (MIC) (S. aureus RN4220): 4 µg/mL (≈ 7.39 µM); minimal inhibitory concentration (MIC) (P. aeruginosa MSC01035): 8 µg/mL (≈ 14.8 µM); minimal inhibitory concentration (MIC) (S. aureus RN4220/pMS520): 4 µg/mL (≈ 7.39 µM); minimal inhibitory concentration (MIC) [2]: 2 µg/mL (≈ 3.69 µM); minimal inhibitory concentration (MIC) (E. faecium ATCC19434): 32 µg/mL (≈ 59.1 µM); minimal inhibitory concentration (MIC) (P. aeruginosa PAO1): 4 µg/mL (≈ 7.39 µM); minimal inhibitory concentration (MIC) [3]: 2 µg/mL (≈ 3.69 µM)

— patent publication US11135234B2, “Effective aminoglycoside antibiotic for multidrug-resistant bacteria” (MICROBIAL CHEMISTRY RESEARCH FOUNDATION, priority 2015, dated 2021)
